From US9290482B2, “Amino-substituted imidazopyridazines” (BAYER PHARMA AKTIENGESELLSCHAFT, priority 2012, dated 2016)

biological target: human full-length MKNK1 (Homo sapiens, UniProt Q9BUB5, T344D); test: MKNK1 kinase high ATP assay (TR-FRET); type: biochemical; settings: 2 mM ATP, 15 min preincubation with MKNK1, TR-FRET
Protocol: MKNK1 Kinase High ATP Assay
MKNK1-inhibitory activity at high ATP of compounds of the present invention after their preincubation with MKNK1 was quantified employing the TR-FRET-based MKNK1 high ATP assay as described in the following paragraphs.
A recombinant fusion protein of Glutathione-S-Transferase (GST, N-terminally) and human full-length MKNK1 (amino acids 1-424 and T344D of accession number BAA 19885.1), expressed in insect cells using baculovirus expression system and purified via glutathione sepharose affinity chromatography, was purchased from Carna Biosciences (product no 02-145) and used as enzyme. As substrate for the kinase reaction the biotinylated peptide biotin-Ahx-IKKRKLTRRKSLKG (C-terminus in amide form) was used, which can be purchased e.g. from the company Biosyntan (Berlin-Buch, Germany).
For the assay 50 nl nL of a 100fold concentrated solution of the test compound in DMSO was pipetted into a black low volume 384well microtiter plate (Greiner Bio-One, Frickenhausen, Germany), 2 μL of a solution of MKNK1 in aqueous assay buffer [50 mM HEPES pH 7.5, 5 mM magnesium chloride, 1.0 mM dithiothreitol, 0.005% (v/v) Nonidet-P40 (Sigma)] was added and the mixture was incubated for 15 min at 22° C. to allow pre-binding of the test compounds to the enzyme before the start of the kinase reaction. Then the kinase reaction was started by the addition of 3 μL of a solution of adenosine-tri-phosphate (ATP, 3.3 mM=>final conc. in the 5 μL assay volume is 2 mM) and substrate (0.1 μM=>final conc. in the 5 μL assay volume is 0.06 μM) in assay buffer and the resulting mixture was incubated for a reaction time of 30 min at 22° C. The concentration of MKNK1 was adjusted depending of the activity of the enzyme lot and was chosen appropriate to have the assay in the linear range, typical concentrations were in the range of 0.003 μg/mL. The reaction was stopped by the addition of 5 μL of a solution of TR-FRET detection reagents (5 nM streptavidine-XL665 [Cisbio Bioassays, Codolet, France] and 1 nM anti-ribosomal protein S6 (pSer236)-antibody from Invitrogen [#44921G] and 1 nM LANCE EU-W1024 labeled ProteinG [Perkin-Elmer, product no. AD0071]) in an aqueous EDTA-solution (100 mM EDTA, 0.1% (w/v) bovine serum albumin in 50 mM HEPES pH 7.5).
The resulting mixture was incubated for 1 h at 22° C. to allow the formation of complex between the phosphorylated biotinylated peptide and the detection reagents. Subsequently the amount of phosphorylated substrate was evaluated by measurement of the resonance energy transfer from the Eu-chelate to the streptavidine-XL. Therefore, the fluorescence emissions at 620 nm and 665 nm after excitation at 350 nm were measured in a TR-FRET reader, e.g. a Rubystar (BMG Labtechnologies, Offenburg, Germany) or a Viewlux (Perkin-Elmer). The ratio of the emissions at 665 nm and at […] was taken as the measure for the amount of phosphorylated substrate. The data were normalised (enzyme reaction without inhibitor=0% inhibition, all other assay components but no enzyme=100% inhibition).

Row | IC50 [nM] | Structure (SMILES)
1 | 86 | c1cnc2cc(-c3cnc4ccc(OC[C@H]5CNCCO5)nn34)oc2c1 [Example 5, 3-(Furo[3,2-b]pyridin-2-yl)-6-[(2R)-morpholin-2-ylmethoxy]imidazo[1,2-b]-pyridazine]
2 | 48 | COc1nccc2oc(-c3cnc4ccc(OC[C@@H]5CCCCN5)nn34)cc12 [Example 8, 3-(4-Methoxyfuro[3,2-c]pyridin-2-yl)-6-[(2S)-piperidin-2-ylmethoxy]imidazo-[1,2-b]pyridazine]
3 | 389 | COc1nccc2oc(-c3cnc4ccc(O[C@@H](CNC5CC5)c5ccc(F)cc5)nn34)cc12 (stereo in doubt) [Example 7, N-[2-(4-Fluorophenyl)-2-{[3-(4-methoxyfuro[3,2-c]pyridin-2-yl)imidazo[1,2-b]-pyridazin-6-yl]oxy}ethyl]cyclopropanamine]
4 | 132 | c1cc2oc(-c3cnc4ccc(OCC[C@@H]5CCCN5)nn34)cc2cn1 [Example 6, 3-(Furo[3,2-c]pyridin-2-yl)-6-{2-[(2S)-pyrrolidin-2-yl]ethoxy}imidazo[1,2-b]-pyridazine]

The remaining lines, values behind:

Row | Structure (SMILES) | IC50 [nM]
5 | COc1nccc2oc(-c3cnc4ccc(OC[C@H]5CNCCO5)nn34)cc12 [Example 1, 3-(4-Methoxyfuro[3,2-c]pyridin-2-yl)-6-[(2R)-morpholin-2-ylmethoxy]imidazo-[1,2-b]pyridazine] | 11
6 | c1cc2oc(-c3cnc4ccc(OC[C@H]5CNCCO5)nn34)cc2cn1 [Example 4, 3-(Furo[3,2-c]pyridin-2-yl)-6-[(2R)-morpholin-2-ylmethoxy]imidazo[1,2-b]-pyridazine] | 72
7 | COc1nccc2oc(-c3cnc4ccc(OCC5CNC5)nn34)cc12 [Example 2, 6-(Azetidin-3-ylmethoxy)-3-(4-methoxyfuro[3,2-c]pyridin-2-yl)imidazo[1,2-b]-pyridazine] | 31
8 | CN[C@H](C)COc1ccc2ncc(-c3cc4c(OC)nccc4o3)n2n1 (stereo in doubt) [Example 3, 1-{[3-(4-Methoxyfuro[3,2-c]pyridin-2-yl)imidazo[1,2-b]pyridazin-6-yl]oxy}-N-methylpropan-2-amine] | 32
